One data set has as its system K562 cells. Nature of the data set: Apoptosis assessment by annexin V staining, K562 cells. Format: cell-based, human. To be noted: for apoptosis of K562 cells: agent alone. The procedure: (§1) Cell lines and cell culture: Bcr-Abl-expressing, CML LAMA-84 and K562 cells are obtained from American Tissue Culture Collection (Manassas, Va.) and maintained in culture in RPMI medium containing 10% fetal bovine serum and passaged twice a week. Mouse pro-B BaF3 cells are cultured in complete RPMI-1640 media supplemented with 10% WEHI medium as the source of IL-3. For the studies described herein, logarithmically growing cells are exposed to the designated concentrations of Compound (II) and/or Compound (V). Following these treatments, cells or cell pellets are washed free of the drug(s) prior to the performance of the studies. Apoptosis assessment by annexin V staining: Untreated and drug-treated cells are stained with annexin V and PI, and the percentage of apoptotic cells is determined by flow cytometry. Analysis of synergism between Compound (II) and Compound (V) in inducing apoptosis of K562 and LAMA-84 cells is performed by Median Dose-Effect analysis of Chou and Talalay using the commercially-available software (Calcusyn; Biosoft, Ferguson, Mo.).

The subject of the next data set is LAMA-84 cells. Description: Apoptosis assessment by annexin V staining, LAMA-84 cells. It is filed as cell-based, human. The following applies: for apoptosis of LAMA-84 cells: agent alone. The method, then: as §1
Data set [1] has as its system Bcr-Abl. Nature of the data set: Western/immunoblot analyses of Bcr-Abl and downstream signaling proteins, LAMA-84 cells. The following applies: agent alone. It is filed as cell-based, human. The procedure:
(§2) Cell lines and cell culture: Bcr-Abl-expressing, CML LAMA-84 and K562 cells are obtained from American Tissue Culture Collection (Manassas, Va.) and maintained in culture in RPMI medium containing 10% fetal bovine serum and passaged twice a week. […] Following these treatments, cells or cell pellets are washed free of the drug(s) prior to the performance of the studies.
(§3) Western analyses of proteins: Western analyses are performed using specific antisera or monoclonal antibodies according to previously reported protocols, and the horizontal scanning densitometry is performed on Western blots.
Immunoprecipitation of Bcr-Abl and immunoblot analyses: Following the designated drug treatments, cells are lysed in lysis buffer (20 mM Tris [pH 8], […] sodium chloride, 1% NP40, 0.1 M sodium fluoride, 1 mM PMSF, 1 mM sodium orthovanadate, 2.5 μg/mL leupeptin, 5 μg/mL aprotinin) for 30 minutes on ice, and the nuclear and cellular debris is cleared by centrifugation. Cell lysates (200 μg) are incubated with the Abl-specific monoclonal antibody for 1 hour at 4° C. To this, washed Protein G agarose beads are added and incubated overnight at 4° C. The immunoprecipitates are washed 3 times in the lysis buffer, and proteins are eluted with the SDS sample loading buffer prior to the immunoblot analyses with specific antibodies against anti-Abl or antiphosphotyrosine antibody.
In general terms: A western blot detects proteins with antibodies after separation by electrophoresis.

The subject of a further data set is NBMCs. Description: Loss of survival of NBMCs. It is filed as cell-based. The following applies: for loss of survival of NBMCs: 48 hours, mean of 2 samples. From the text:
Primary CML-BC cells and NBMCs: Leukemia cells from the peripheral blood and/or bone marrow of 10 patients who had met the clinical criteria of imatinib-resistant Ph chromosome-positive CML-BC (Imatinib-resistant Philadelphia chromosome-positive chromic myeloid leukaemia-blast crisis) are harvested and purified. Additionally, NBMCs are harvested and purified. Informed consents are signed by all patients to allow use of their cells for these experiments, as part of a clinical protocol approved by the University of South Florida Institutional Review Board (IRB).
Assessment of percentage of non-viable cells: Cells are stained with trypan blue (Sigma, St Louis, Mo.).

Another data set concerns BaF3/Bcr-Abl cells. Description: Apoptosis of BaF3 cells expressing unmutated Bcr-Abl. It is filed as cell-based, mouse. To be noted: agent alone.
Excerpt: as §2
(§4) Site-directed mutagenesis and nucleofection: Three p210 Bcr-Abl constructs are used in the current studies. The p210 Bcr-Abl WT and p210 Bcr-Abl (T315I) constructs are generated. […] For nucleofection of the p210 Bcr-Abl constructs into BaF3 cells, 5 million BaF3 cells in 100 μL Nucleofector solution V (Amaxa, Gaithersburg, Md.) are mixed with 5 μg p210 Bcr-Abl WT, p210 Bcr-Abl (T315I), or p210 Bcr-Abl (E255K) in a cuvette and nucleofected using program G-16. […] Stably expressing cells are then further selected by removal of IL-3. After confirmation of Bcr-Abl expression by immunoblot analysis, cells are used for the studies described herein.
(§5) Apoptosis assessment by annexin V staining: Untreated and drug-treated cells are stained with annexin V and PI, and the percentage of apoptotic cells is determined by flow cytometry.

The next data set deals with BaF3/Bcr-AblT315I cells. Nature of the data set: Apoptosis of BaF3 cells expressing Bcr-AblT315I. It is filed as cell-based, mouse.
Another data set relates to BaF3/Bcr-AblE255K cells. Description: Apoptosis of BaF3 cells expressing Bcr-AblE255K. It is filed as cell-based, mouse.
Excerpt: as §2, §4, §5

For data set [2], the system named is Bcr-Abl. Description: Western analyses of Bcr-Abl levels, BaF3/Bcr-Abl cells. Format: cell-based, mouse.
In a further data set the test system is Bcr-AblT315I. Nature of the data set: Western analyses of Bcr-Abl levels, BaF3/Bcr-AblT315I cells. Format: cell-based, mouse.
The next data set relates to Bcr-AblE255K. Nature of the data set: Western analyses of Bcr-Abl levels, BaF3/Bcr-AblE255K cells. It is filed as cell-based, mouse.
Data set [3] deals with primary, imatinib-resistant CML cells. Nature of the data set: Loss of viability / apoptosis of primary imatinib-resistant CML-BC cells. It is filed as cell-based, human. The following applies: for sensitivity of sample 7: Compound (II) at lower concentrations; for apoptosis of cells: sample no. 9 (Bcr-AblT315I). The method, then: Primary CML-BC cells and NBMCs: […] Additionally, NBMCs are harvested and purified. Informed consents are signed by all patients to allow use of their cells for these experiments, as part of a clinical protocol approved by the University of South Florida Institutional Review Board (IRB). Sequencing of Bcr-Abl in CML-BC cells: […] Total RNA (5 μg) is reverse transcribed with a first-strand cDNA synthesis kit (Invitrogen). Reverse transcribed cDNAs are used in polymerase chain reaction (PCR) amplifications to amplify a fragment of Bcr-Abl that included the Bcr junction region and the c-Abl kinase region. The amplified sequences are agarose gel-purified and cloned into pCR4-TOPO plasmid. The resulting plasmids are transformed into Escherichia coli Mach1 cells (Invitrogen) overnight at 37° C. Ten colonies for each sample are checked by colony PCR and subcultured for plasmid isolation. Isolated plasmids are sequence verified with T3 and T7 primers for c-Abl kinase domain mutations. Assessment of percentage of non-viable cells: Cells are stained with trypan blue (Sigma, St Louis, Mo.). […] Apoptosis assessment by annexin V staining: Untreated and drug-treated cells are stained with annexin V and PI, and the percentage of apoptotic cells is determined by flow cytometry. Analysis of synergism between Compound (II) and Compound (V) in inducing apoptosis of K562 and LAMA-84 cells is performed by Median Dose-Effect analysis of Chou and Talalay using the commercially-available software (Calcusyn; Biosoft, Ferguson, Mo.).

The test system of data set [4] is Bcr-Abl. Nature of the data set: Western blot analyses of total cell lysates of primary CML cells. The following applies: sample 9; 1000 nM alone. It is filed as cell-based, human. The method, then:
Additionally, NBMCs are harvested and purified. Informed consents are signed by all patients to allow use of their cells for these experiments, as part of a clinical protocol approved by the University of South Florida Institutional Review Board (IRB).
as §3

Where [5] appears, read: any of the levels tested, alone.

The structures appear in SMILES notation.

Consider `Cc1cn(-c2cc(NC(=O)c3ccc(C)c(Nc4nccc(-c5cccnc5)n4)c3)cc(C(F)(F)F)c2)cn1` [Compound (II), 4-methyl-3-[[4-(3-pyridinyl)-2-pyrimidinyl]amino]-N-[5-(4-methyl-1H-imidazol-1-yl)-3-(trifluoromethyl)phenyl]benzamide], for which the “potency in inducing apoptosis relative to imatinib” value in the data set with K562 cells (K562 cells) and in the data set with LAMA-84 cells (LAMA-84 cells) was “approximately 10 fold” each time. Further, the “apoptosis of K562 cells” value with K562 cells is on record as “dose-dependent manner”. For the same compound, the “apoptosis of LAMA-84 cells” value in the data set on LAMA-84 cells is listed as “dose-dependent manner”. Also, in the data set on Bcr-Abl [1], the “expressions of c-Myc and Bcl-xL” value was “lowered”. The “levels of Bcr-Abl” value is “without affecting” in the data set on Bcr-Abl [1], “did not lower” with Bcr-Abl [2] (setting [5]), “did not lower” in the data set on Bcr-AblT315I (setting [5]) and “did not lower” with Bcr-AblE255K (setting [5]). In addition, the “levels of p-AKT” value in the data set with Bcr-Abl [1] is “inhibited”. For the same compound, the “levels of p-CrkL” value is given as “inhibited” in the data set on Bcr-Abl [1], “did not affect” in the data set on Bcr-Abl [2] (agent alone), “did not affect” in the data set with Bcr-AblT315I (agent alone) and “did not affect” with Bcr-AblE255K (agent alone). Also, the “levels of p-STAT5” value in the data set with Bcr-Abl [1] was “attenuated”. Further, in the data set with Bcr-Abl [1], the “levels of tyrosine phosphorylated Bcr-Abl” value is given as “inhibited”. Besides, the p27 levels entry in the data set on Bcr-Abl [1] is reported as “induction”. The “effect against NBMCs” value in the data set on NBMCs (up to 1.0 μM) is on record as “no effect”. Also, in the data set with BaF3/Bcr-Abl cells, the “apoptosis of BaF3/Bcr-Abl cells” value was “dose-dependent manner”. In the data set on BaF3/Bcr-AblT315I cells (levels as high as 2,000 nM), the “apoptosis of BaF3/Bcr-AblT315I cells” value is “resistant”. The “apoptosis of BaF3/Bcr-AblE255K cells” value is given as “ineffective” in the data set on BaF3/Bcr-AblE255K cells (100 nM), 26.0% in the data set with BaF3/Bcr-AblE255K cells (200 nM) and 43.0% with BaF3/Bcr-AblE255K cells (500 nM). For the same compound, the “sensitivity of sample 7” value in data set [3] is on record as “relatively resistant”. The apoptosis of cells entry in [3] (2.0 μM) is “ineffective”. Moreover, the “loss of cell viability” value in [3] (samples 1 to 7, agent alone) is “dose dependent”; in data set [3] (samples 8, 9, and 10 with Bcr-AblT315I mutation, Compound (II) alone), “did not augment”. Further, the “levels of Bcr-Abl, p-CrkL, and p-STAT5” value in the data set with Bcr-Abl [4] was “little effect”.

As to `Cc1[nH]c2ccccc2c1CCNCc1ccc(/C=C/C(=O)NO)cc1` [Compound (V), N-hydroxy-3-[4-[[[2-(2-methyl-1H-indol-3-yl)-ethyl]-amino]methyl]phenyl]-2E-2-propenamide], in the data set with K562 cells, the “apoptosis of K562 cells” value is given as “dose-dependent manner”. Also, in the data set with LAMA-84 cells, the “apoptosis of LAMA-84 cells” value is “dose-dependent manner”. The “loss of survival of NBMCs” value in the data set with NBMCs (20 nM) is 13.1%; in the data set on NBMCs (50 nM), 15.9%. Moreover, the “apoptosis of BaF3/Bcr-Abl T315I cells” value is “approximately 30%” with BaF3/Bcr-AblT315I cells (50 nM, 48 hours) and “less effective” with BaF3/Bcr-AblT315I cells (levels lower than 50 nM). For the same compound, the “sensitivity of BaF3/Bcr-AblT315I cells to induced apoptosis” value in the data set on BaF3/Bcr-AblT315I cells (agent alone) is recorded as “as sensitive as BaF3/Bcr-Abl cells”. For the same compound, the Bcr-Abl levels entry in the data set on Bcr-Abl [2] (50 nM, 24 hours) is on record as “lowered”; in the data set on Bcr-AblT315I (50 nM, 24 hours), “lowered”; with Bcr-AblE255K (50 nM, 24 hours), “lowered”. Besides, in data set [3], the “sensitivity of sample 7” value is reported as “sensitive”. Moreover, the apoptosis of cells in data set [3] (50 nM alone) came out at 42.0%. In data set [3] (samples 1 to 7, agent alone), the “loss of cell viability” value is “dose dependent”. The cell viability result in data set [3] (samples 8, 9, and 10 with Bcr-AblT315I mutation, alone, 48 hours, dose-dependent) is on record as “markedly inhibited”.

(Values after patent US20080200489A1, “Combination of Organic Compounds” (priority 2005, published 2008).)
